In this experiment the test system is T1, ASNase (L-asparaginase) from Bacillus licheniformis KKU-KH14.
T1 construct: gene ansZ
The note with it: L-asparagine 0.0-0.1 M; standard assay Tris-HCl pH 7.4, 30 min; temperature of the kinetic assay not stated.

Molecules are shown by their SMILES.

In the case of `NC(=O)C[C@H](N)C(=O)O` [L-asparagine], the Km was 50 mM.

As usually defined, the Km is the concentration of substrate that gives half-maximal velocity.

The record behind these values is paper PMC6403232, “Production and Anticancer Activity of an L-Asparaginase from Bacillus licheniformis Isolated from the Red Sea, Saudi Arabia” (Scientific Reports, 2019).
